Our source for the Motility values is ChEMBL document CHEMBL3137381, “MMV Box Onchocerca lienalis screening set”.

Holding throughout (format): functional
Experiment [1] deals with Onchocerca lienalis. In words: MMV: Percent motility assay at a compound concentration of 3.1e-6 M. Activity score legend: 3: Active, 2: Moderately active; 1: Inactive, 0: Toxic. The settings on record: at 3.1 µM.
Experiment [2] concerns Onchocerca lienalis. In words: MMV: Percent motility assay at a compound concentration of 1.9e-7 M. Activity score legend: 3: Active, 2: Moderately active; 1: Inactive, 0: Toxic. The settings on record: at 0.19 µM.
Experiment [3] deals with Onchocerca lienalis. Briefly: MMV: Percent motility assay at a compound concentration of 1.25e-5 M. Activity score legend: 3: Active, 2: Moderately active; 1: Inactive, 0: Toxic. As to conditions: at 12.5 µM.
For experiment [4], the system named is Onchocerca lienalis. In words: MMV: Percent motility assay at a compound concentration of 7.8e-7 M. Activity score legend: 3: Active, 2: Moderately active; 1: Inactive, 0: Toxic. As to conditions: at 0.78 µM.

`CCOc1cc(CNC(C)C(O)c2ccccc2)cc(Cl)c1OCC` (centres undefined): the Motility with Onchocerca lienalis [1], with Onchocerca lienalis [2], in the experiment on Onchocerca lienalis [3] and in the experiment on Onchocerca lienalis [4] was 100% each time.
In the case of `Cc1cc(NC(=O)c2cccc(C(F)(F)F)c2)n(-c2nc(-c3ccc4c(c3)OCO4)cs2)n1`, the Motility in the experiment with Onchocerca lienalis [1], with Onchocerca lienalis [2], in the experiment on Onchocerca lienalis [3] and with Onchocerca lienalis [4] was 100% in each case.
As for `COc1cccc(C2(C)Nc3ccccc3-c3nc4ccccc4n32)c1` (centres undefined), the Motility in the experiment on Onchocerca lienalis [1], in the experiment with Onchocerca lienalis [2], in the experiment with Onchocerca lienalis [3] and with Onchocerca lienalis [4] was 100% in each case.
On to `CC(C)CNC(=O)c1c(N)n(CCc2ccccc2F)c2nc3ccccc3nc12`, for which the Motility in the experiment on Onchocerca lienalis [1], in the experiment with Onchocerca lienalis [2], in the experiment with Onchocerca lienalis [3] and in the experiment with Onchocerca lienalis [4] was 100% in each case.
For `Cc1cccc(-n2ncc3c(O)nc(-n4nc(C)cc4NC(=O)c4cc5ccccc5o4)nc32)c1`, the Motility with Onchocerca lienalis [1] turned out to be 100%; in the experiment on Onchocerca lienalis [2], 100%; with Onchocerca lienalis [3], 0%; in the experiment with Onchocerca lienalis [4], 100%.
With `Oc1ccccc1CN1CCC2(CCCN(Cc3ccccc3F)C2)C1` (centres undefined), the Motility with Onchocerca lienalis [1], in the experiment on Onchocerca lienalis [2], in the experiment on Onchocerca lienalis [3] and in the experiment on Onchocerca lienalis [4] was 100% each time.
For the compound `COCCNCC(O)Cn1c2ccc(Cl)cc2c2cc(Cl)ccc21` (centres undefined), the Motility in the experiment with Onchocerca lienalis [1] amounted to 100%; with Onchocerca lienalis [2] it was 100%; with Onchocerca lienalis [3], 66.66%; with Onchocerca lienalis [4] it was 100%.
`O=C(NC1CCN(Cc2ccccc2)CC1)c1cc(-c2ccncc2)nc2ccc(Cl)cc12`: the Motility in the experiment with Onchocerca lienalis [1], in the experiment with Onchocerca lienalis [2], with Onchocerca lienalis [3] and in the experiment on Onchocerca lienalis [4] was 100% each time.
Turning to `COc1cc2cc(C(=O)Nc3ccccc3)c(N)nc2cc1OC`, the Motility with Onchocerca lienalis [1], in the experiment with Onchocerca lienalis [2], in the experiment on Onchocerca lienalis [3] and in the experiment on Onchocerca lienalis [4] was 100% each time.
As for `O=C(O)C(=O)O.Oc1ccccc1CN1CCN(C(c2ccccc2)c2ccccc2)CC1`, the Motility with Onchocerca lienalis [1], with Onchocerca lienalis [2], in the experiment with Onchocerca lienalis [3] and in the experiment with Onchocerca lienalis [4] was 100% in each case.
Regarding `CC(=O)Nc1nnc(SCc2c(C)cc(C(C)(C)C)cc2C)s1`, the Motility in the experiment on Onchocerca lienalis [1], in the experiment on Onchocerca lienalis [2], with Onchocerca lienalis [3] and in the experiment with Onchocerca lienalis [4] was 100% each time.
In the case of `CN1CCN(c2c3c(c(C#N)c4nc5ccccc5n24)CCC3)CC1`, the Motility with Onchocerca lienalis [1], with Onchocerca lienalis [2], with Onchocerca lienalis [3] and in the experiment on Onchocerca lienalis [4] was 100% each time.
As to `CCOc1ccc(C2N(C)c3ccccc3N2C)cc1`, the Motility in the experiment with Onchocerca lienalis [1], in the experiment with Onchocerca lienalis [2], in the experiment on Onchocerca lienalis [3] and with Onchocerca lienalis [4] was 100% in each case.
For the compound `CCN(Cc1ccccc1)C1CCN(Cc2cc(Br)ccc2O)CC1.O=C(O)C(=O)O`, the Motility in the experiment on Onchocerca lienalis [1], with Onchocerca lienalis [2], with Onchocerca lienalis [3] and in the experiment on Onchocerca lienalis [4] was 100% in each case.
Turning to `COc1nc(Nc2ccc(C(C)C)cc2)nc(OC)n1`, the Motility with Onchocerca lienalis [1], with Onchocerca lienalis [2], in the experiment on Onchocerca lienalis [3] and in the experiment on Onchocerca lienalis [4] was 100% in each case.
In the case of `CCN(CC)CCNc1ncnc2c1[nH]c1ccc(Br)cc12`, the Motility in the experiment with Onchocerca lienalis [1], in the experiment on Onchocerca lienalis [2], in the experiment on Onchocerca lienalis [3] and with Onchocerca lienalis [4] was 100% each time.
Regarding `CCOc1cccc(C(=O)Nc2ccc(-c3nc4ccccc4[nH]3)cc2)c1`, the Motility in the experiment on Onchocerca lienalis [1], in the experiment with Onchocerca lienalis [2], in the experiment on Onchocerca lienalis [3] and in the experiment with Onchocerca lienalis [4] was 100% in each case.
For `Cl.Clc1cc(Br)ccc1-c1ccc(CNCC2CCNCC2)o1`, the Motility in the experiment with Onchocerca lienalis [1], with Onchocerca lienalis [2], in the experiment on Onchocerca lienalis [3] and in the experiment on Onchocerca lienalis [4] was 100% each time.
As for `CC(C)(C)C(=O)Nc1ccc(C(=O)Nc2cccc(-c3nc4ccccc4[nH]3)c2)cc1`, the Motility in the experiment with Onchocerca lienalis [1], in the experiment on Onchocerca lienalis [2], in the experiment on Onchocerca lienalis [3] and with Onchocerca lienalis [4] was 100% throughout.
With `COc1ccc(-c2nonc2NC(=O)c2cccc(C)c2)cc1OC`, the Motility in the experiment on Onchocerca lienalis [1], in the experiment on Onchocerca lienalis [2], with Onchocerca lienalis [3] and in the experiment with Onchocerca lienalis [4] was 100% in each case.
Regarding `O=C(Nc1ccc(N2CCN(Cc3ccccc3)CC2)cc1)c1cccs1.O=C(O)C(F)(F)F`, the Motility with Onchocerca lienalis [1], with Onchocerca lienalis [2], in the experiment on Onchocerca lienalis [3] and in the experiment on Onchocerca lienalis [4] was 100% in each case.
`O=C(Nc1ccc(N2CCCCC2)c(Cl)c1)c1ccc(Br)o1`: the Motility in the experiment with Onchocerca lienalis [1], in the experiment with Onchocerca lienalis [2], in the experiment with Onchocerca lienalis [3] and with Onchocerca lienalis [4] was 100% each time.
For `CC1CC(C)CN(C(=O)c2ccc(Cl)cc2Cl)C1` (centres undefined), the Motility in the experiment with Onchocerca lienalis [1], in the experiment with Onchocerca lienalis [2], in the experiment with Onchocerca lienalis [3] and with Onchocerca lienalis [4] was 100% in each case.
For the compound `OC(CNC1CCCC1)Cn1c2ccccc2c2ccccc21` (centres undefined), the Motility in the experiment with Onchocerca lienalis [1], in the experiment with Onchocerca lienalis [2], with Onchocerca lienalis [3] and in the experiment with Onchocerca lienalis [4] was 100% throughout.
Turning to `Clc1ccc2[nH]c3c(NCCCN4CCOCC4)ncnc3c2c1`, the Motility in the experiment with Onchocerca lienalis [1], in the experiment with Onchocerca lienalis [2], with Onchocerca lienalis [3] and in the experiment with Onchocerca lienalis [4] was 100% in each case.
For the compound `Oc1c2c(nc3cc(-c4ccccc4)nn13)CCCC2`, the Motility in the experiment with Onchocerca lienalis [1], in the experiment on Onchocerca lienalis [2], in the experiment with Onchocerca lienalis [3] and with Onchocerca lienalis [4] was 100% each time.
Turning to `Cc1cc(N2CCN(C3CCCC3)CC2)n2c(nc3ccccc32)c1C#N`, the Motility with Onchocerca lienalis [1], in the experiment on Onchocerca lienalis [2], in the experiment with Onchocerca lienalis [3] and with Onchocerca lienalis [4] was 100% in each case.
Consider `CCCCOc1ccc(C(=O)Nc2cc(C)on2)cc1`, for which the Motility in the experiment on Onchocerca lienalis [1], in the experiment with Onchocerca lienalis [2], in the experiment on Onchocerca lienalis [3] and in the experiment on Onchocerca lienalis [4] was 100% in each case.
On to `CCc1ccc(Nc2cc(C)nc3nc(C)nn23)cc1`, for which the Motility in the experiment with Onchocerca lienalis [1], in the experiment on Onchocerca lienalis [2], in the experiment on Onchocerca lienalis [3] and in the experiment on Onchocerca lienalis [4] was 100% in each case.
For `Br.CCN(CC)S(=O)(=O)c1ccc(-c2csc(Nc3ccc(C)c(C)c3)n2)cc1`, the Motility in the experiment with Onchocerca lienalis [1], with Onchocerca lienalis [2], with Onchocerca lienalis [3] and in the experiment on Onchocerca lienalis [4] was 100% in each case.
Turning to `C=CCc1c(C)nc2ccccc2c1O`, the Motility in the experiment on Onchocerca lienalis [1], in the experiment on Onchocerca lienalis [2], in the experiment with Onchocerca lienalis [3] and in the experiment with Onchocerca lienalis [4] was 100% in each case.
